In brackets after ≈: the same amount, converted by molar mass. Read-outs that look alike come from different tables or passages of the source.

Holding throughout (type): cell-based
In assay [1] the test system is Proteus mirabilis IXM OM-19. The assay is described as follows: MIC against bacteria (Table I), strain (3). The conditions noted are these: IXMOM19; (3) Proteus mirabilis IXM OM-19; read-out: MIC. From the text: (§1) Now, for illustrating the excellent pharmacological effects of the compounds of this invention, the values of MIC (γ/ml.) of the compounds against various bacteria are shown in Table 1, in which the compounds of this invention used are shown by example numbers.
(3) Proteus mirabilis IXM OM-19

The subject of assay [2] is Shigella flexneri 2a 1675. The assay is described as follows: MIC against bacteria (Table I), strain (11). The note with it: 2A1675; (11) Shigella flexneri 2a 1675; read-out: MIC.
Excerpt: as §1

In assay [3] the test system is Staphylococcus Shimanishi. The assay can be described thus: MIC against bacteria (Table I), strain (17).
Excerpt: as §1
(17) Staphylococcus Shimanishi

Assay [4] relates to Pseudomonas aeruginosa 99 (Gentamycin resistant). The assay is described as follows: MIC against bacteria (Table I), strain (5). The note with it: (5) Pseudomonas aeruginosa 99 (Gentamycin resistant); read-out: MIC.
Excerpt: as §1
(5) Pseudomonas aeruginosa 99 (Gentamycin resistant)

The subject of another assay is Staphylococcus Onuma. The assay can be described thus: MIC against bacteria (Table I), strain (18). The conditions noted are these: (18) Staphylococcus Onuma; read-out: MIC.
Excerpt: as §1
(18) Staphylococcus Onuma

The subject of the next assay is Salmonella typhi H901 W. The assay is described as follows: MIC against bacteria (Table I), strain (9). The note with it: Salmonella enterica, TYPHI.
Excerpt: as §1
(9) Salmonella typhi H901 W

Assay [5] concerns Escherichia coli kauffmann 0-1. The assay can be described thus: MIC against bacteria (Table I), strain (7). The note with it: Escherichia coli.
Excerpt: as §1
(7) Escherichia coli kauffmann 0-1

The test system of the next assay is Proteus vulgaris OXK US. The assay is described as follows: MIC against bacteria (Table I), strain (1). The note with it: (1) Proteus vulgaris OXK US; read-out: MIC.
Excerpt: as §1
(1) Proteus vulgaris OXK US

In another assay the test system is Salmonella enteritidis. The assay can be described thus: MIC against bacteria (Table I), strain (10). The conditions noted are these: Salmonella enterica; (10) Salmonella enteritidis; read-out: MIC.
Excerpt: as §1
(10) Salmonella enteritidis

The subject of the next assay is Proteus vulgaris 0X 19US. The assay is described as follows: MIC against bacteria (Table I), strain (2). The conditions noted are these: 0X19US; (2) Proteus vulgaris 0X 19US; read-out: MIC.
Excerpt: as §1
(2) Proteus vulgaris 0X 19US

Assay [6] concerns Bacillus subtilis ATCC 6633. The assay can be described thus: MIC against bacteria (Table I), strain (14). The conditions noted are these: ATCC6633.
Excerpt: as §1
(14) Bacillus subtilis ATCC 6633

The test system of assay [7] is Klebsiella pneumoniae ATCC 10031. The assay can be described thus: MIC against bacteria (Table I), strain (8). The note with it: ATCC10031; (8) Klebsiella pneumoniae ATCC 10031; read-out: MIC.
Excerpt: as §1
(8) Klebsiella pneumoniae ATCC 10031

The subject of assay [8] is Pseudomonas aeruginosa ATCC 8689. The assay is described as follows: MIC against bacteria (Table I), strain (4). The conditions noted are these: ATCC8689; (4) Pseudomonas aeruginosa ATCC 8689; read-out: MIC.
Excerpt: as §1
(4) Pseudomonas aeruginosa ATCC 8689

Assay [9] concerns Psuedomonas ovalis IMA 1002. The assay is described as follows: MIC against bacteria (Table I), strain (6). The note with it: (6) Psuedomonas ovalis IMA 1002; read-out: MIC.
Excerpt: as §1
(6) Psuedomonas ovalis IMA 1002

The test system of another assay is Shigella sonnei II 37148. The assay is described as follows: MIC against bacteria (Table I), strain (12). The note with it: II37148; (12) Shigella sonnei II 37148; read-out: MIC.
Excerpt: as §1

For assay [10], the system named is Staphylococcus aureus 209P. The assay is described as follows: MIC against bacteria (Table I), strain (16).
Excerpt: as §1
(16) Staphylococcus aureus 209P

The subject of assay [11] is Bacillus megatherium 10778. The assay can be described thus: MIC against bacteria (Table I), strain (13). The note with it: (13) Bacillus megatherium 10778; read-out: MIC.
Excerpt: as §1

Assay [12] concerns Micrococcus flavus ATCC 10240. The assay is described as follows: MIC against bacteria (Table I), strain (15). The conditions noted are these: ATCC10240.
Excerpt: as §1
(15) Micrococcus flavus ATCC 10240

[13] abbreviates: (17) Staphylococcus Shimanishi, read-out: MIC.
Where [14] appears, read: (14) Bacillus subtilis ATCC 6633, read-out: MIC.
[15] abbreviates: (15) Micrococcus flavus ATCC 10240, read-out: MIC.

The MIC is the lowest concentration found to suppress growth. In the case of `CSc1ccc2c(=O)c(C(=O)N[C@@H](C(=O)N[C@@H]3C(=O)N4C(C(=O)O)=C(CSc5nnc(SCC(=O)O)s5)CS[C@H]34)c3ccccc3)c[nH]c2c1` [Example 12, 7-[D-α-(7-methylthio-4-quinolon-3-ylcarboxamido)-α-phenylacetamido]-3-(5-carboxymethylthio-1,3,4-thiadiazol-2yl)thiomethyl-Δ^3-cephem-4-carboxylic acid], the minimum inhibitory concentration (MIC) in [1] worked out at 0.39 µg/mL (≈ 0.506 µM); in assay [2], 1.56 µg/mL (≈ 2.02 µM); in assay [3] (Staphylococcus) it was 3.13 µg/mL (≈ 4.06 µM); in assay [4], 12.5 µg/mL (≈ 16.2 µM); in the assay on Staphylococcus Onuma, 6.25 µg/mL (≈ 8.11 µM); against Salmonella typhi H901 W it was 0.19 µg/mL (≈ 0.246 µM). For the same compound, the MIC in assay [5] was found to be 6.25 µg/mL (≈ 8.11 µM); in the assay with Proteus vulgaris OXK US, 0.19 µg/mL (≈ 0.246 µM); with Salmonella enteritidis, 0.19 µg/mL (≈ 0.246 µM); in the assay on Proteus vulgaris 0X 19US, 0.19 µg/mL (≈ 0.246 µM); in [6] (Bacillus subtilis) it was 3.13 µg/mL (≈ 4.06 µM); in assay [7], 0.39 µg/mL (≈ 0.506 µM). Further, the MIC in assay [8] came out at 25 µg/mL (≈ 32.4 µM); in assay [9] it was 25 µg/mL (≈ 32.4 µM); in the assay with Shigella sonnei II 37148, 3.13 µg/mL (≈ 4.06 µM); in assay [10] ((16) Staphylococcus aureus 209P, read-out: MIC) it was 0.78 µg/mL (≈ 1.01 µM); in assay [11] it was 0.39 µg/mL (≈ 0.506 µM); in [12] (Micrococcus flavus) it was 3.13 µg/mL (≈ 4.06 µM).
Take `Cc1nc(SCC2=C(C(=O)O)N3C(=O)[C@@H](NC(=O)[C@H](NC(=O)c4cnccc4O)c4ccccc4)[C@H]3SC2)sc1C(=O)O` [Example 14, 7-[D-α-(4-hydroxynicotinoylamido)-α-phenylacetamido]-3-(4-methyl-5-carboxythiazol-2-yl)thiomethyl-Δ^3-cephem-4-carboxylic acid]: the MIC was found to be 0.19 µg/mL (≈ 0.296 µM) in assay [1]; 1.56 µg/mL (≈ 2.43 µM) in assay [2]; 12.5 µg/mL (≈ 19.5 µM) in assay [3] (setting [13]); 12.5 µg/mL (≈ 19.5 µM) in assay [4]; 12.5 µg/mL (≈ 19.5 µM) in the assay with Staphylococcus Onuma; 1.56 µg/mL (≈ 2.43 µM) against Salmonella typhi H901 W. Also, the MIC was 3.13 µg/mL (≈ 4.88 µM) in assay [5]; 0.19 µg/mL (≈ 0.296 µM) in the assay on Proteus vulgaris OXK US; 0.78 µg/mL (≈ 1.22 µM) with Salmonella enteritidis; 0.78 µg/mL (≈ 1.22 µM) in the assay on Proteus vulgaris 0X 19US; 0.78 µg/mL (≈ 1.22 µM) in assay [6] (setting [14]); 6.25 µg/mL (≈ 9.74 µM) in assay [7]. In addition, the MIC in assay [8] was 25 µg/mL (≈ 39 µM); in [9] it was 25 µg/mL (≈ 39 µM); in the assay on Shigella sonnei II 37148, 3.13 µg/mL (≈ 4.88 µM); in [10] (Staphylococcus aureus, 209P), 1.56 µg/mL (≈ 2.43 µM); in assay [11], 0.39 µg/mL (≈ 0.608 µM); in assay [12] (setting [15]), 6.25 µg/mL (≈ 9.74 µM).
Consider `O=C(O)Cn1nnnc1SCC1=C(C(=O)O)N2C(=O)[C@@H](NC(=O)[C@H](NC(=O)c3cnccc3O)c3ccccc3)[C@H]2SC1` [Example 15, 7-[D-α-(4-hydroxynicotinoylamido)-α-phenylacetamido]-3-(1-carboxymethyltetrazol-5-yl)-thiomethyl-Δ^3-cephem-4-carboxylic acid], for which the MIC is less than 0.09 µg/mL in [1]; 3.13 µg/mL (≈ 4.99 µM) in assay [2]; 12.5 µg/mL (≈ 19.9 µM) in [3] (setting [13]); 6.25 µg/mL (≈ 9.97 µM) in assay [4]; 25 µg/mL (≈ 39.9 µM) in the assay on Staphylococcus Onuma; 3.13 µg/mL (≈ 4.99 µM) against Salmonella typhi H901 W. The MIC in assay [5] came out at 6.25 µg/mL (≈ 9.97 µM); in the assay with Proteus vulgaris OXK US, 0.19 µg/mL (≈ 0.303 µM); in the assay on Salmonella enteritidis, 0.78 µg/mL (≈ 1.24 µM); in the assay with Proteus vulgaris 0X 19US, 0.39 µg/mL (≈ 0.622 µM); in assay [6] (setting [14]), 0.39 µg/mL (≈ 0.622 µM); in assay [7], 6.25 µg/mL (≈ 9.97 µM). Also, the MIC is 25 µg/mL (≈ 39.9 µM) in [8]; 12.5 µg/mL (≈ 19.9 µM) in assay [9]; 3.13 µg/mL (≈ 4.99 µM) in the assay with Shigella sonnei II 37148; 3.13 µg/mL (≈ 4.99 µM) in assay [10] (Staphylococcus aureus, 209P); 0.39 µg/mL (≈ 0.622 µM) in assay [11]; 25 µg/mL (≈ 39.9 µM) in assay [12] (setting [15]).

Values taken from patent US4068074A, “Cephalosporin derivatives having at the 3-position of the cephem ring a heterocyclic thiomethyl group with a carboxy or sulfo group and at the 7-position of the cephem ring an α-heterocylic acylaminophenyl-acetamide group” (priority 1974, dated 1978).
